Measured values reported in patent publication US11267830B2, “Flow battery and components thereof” (University of Massachusetts, priority 2017, dated 2022).
Read-outs that look alike come from different tables or passages of the source.

How the values were obtained:
[1] = when oxidized to the 4+ state; cited from earlier work
Solubility in solvents = assay type: physicochemical; details: solvents other than DMSO and water
From the text: Since the solubility of CVBH is low in solvents other than DMSO and water, investigation of the electrochemistry in PC necessitated the synthesis of the bis-tetramethylammonium (TMA) salt of vanadium bis-hydroxyiminodiacetate (VBH), which was characterized using FTIR and X-ray crystallography (FIG. 2). While the coordination sphere of the VBH dianion is unperturbed compared to that of CVBH, solubility is greatly altered with two diffuse TMA countercations compared to the Ca^+2 counter-cation of CVBH. Altering the cation(s) of VBH^2− is a way to tune solubility in various battery-relevant solvents and compatibility with an array of membrane/separator architectures and supporting electrolytes. These attributes are paramount to realization of high power and energy densities in NRFB systems and this strategy offers a promising avenue for optimization.

[2] = Metal-ligand stability constant; assay type: physicochemical; details: oxidized, vanadium(v) state; deduced using a thermodynamic cycle
From the text: (§1) Any decomposition of CVBH under these conditions would be evident as a decrease in peak current and changes in reversibility, as the identity of the species present at the electrode evolved over time. […] This is in stark contrast to the anaerobic and anhydrous conditions that are necessary in handling other NRFB active materials. […] This occurs even in ostensibly anhydrous systems due to the presence of adventitious water, and is the result of ligand substitution, yielding a vanadyl (V═O) species that is nearly ubiquitous in aqueous vanadium(iv) coordination chemistry. It should be further noted that CVBH is stable in both the reduced, vanadium(iv), state (as-synthesized) and the oxidized, vanadium(v) state, with metal ligand stability constants of 8.2×10^21 and 2.6×10^23, respectively. While the former has been measured, the latter can be deduced using a thermodynamic cycle, constructed from published data for the vanadium(iv/v) reduction potentials of CVBH and aqueous, acidic vanadium ions, along with the metal-ligand stability constant of CVBH in the vanadium(iv) oxidation state (FIG. 4).

[3] = Exhaustive cycling using cyclic voltammetry (stability); assay type: physicochemical
Description: (§2) Cyclic voltammetry was carried out in DMSO using a 3 mm glassy carbon electrode as working electrode, a Pt wire counter electrode, a silver wire pseudo reference electrode and tetrabutylammonium hexafluorophosphate as supporting […]. Ferrocene was used as an internal potential reference. Static cell cycling was carried out using graphite felt (Alfa Aesar, part #AA14630RR) which was heat-treated in a furnace at 250° C. under air, overnight, before use.
as §1, with “It should be further noted that CVBH is stable in both the reduced, vanadium(iv), state (as-synthesized) and the oxidized, vanadium(v) state, with metal ligand stability constants of 8.2×10^21 and 2.6×10^23, respectively.” left out

[4] = Static cell cycling to ~80% state of charge; assay type: physicochemical; details: more than 90 cycles, 0.35 V and −0.35 V vs. open circuit
Description: as §2
As such, the behavior of CVBH during cycling to ˜80% state of charge was investigated by alternately applying potentials of 0.35 V and −0.35 V vs. open circuit to oxidize and reduce the compound, respectively. […] Some decrease in peak current over time was observed (FIG. 5B), however, it was restored after stirring was stopped for 20 minutes (FIG. 5B, dotted line).

[5] = earlier study, sample contaminated by mono-sodium salt of the ligand; cited from earlier work
[6] = reduced, vanadium(iv) state; cited from earlier work
[7] = Cyclic voltammetry (formal potential, diffusion coefficient); assay type: physicochemical; details: for diffusion coefficient for the one-electron oxidation: 0.5 M TBAPF6, Randles-Sevcik fit
Description: as §2
CV data with variable scan rates were used to determine the diffusion coefficient for the one-electron oxidation of CVBH^−2 by fitting with the Randles-Sevcik equation. In addition, to investigate the effect of solvent on this property, the analysis was carried out in propylene carbonate (PC).

solubility (Solubility in solvents) | metal ligand stability constant [2] | change in voltammogram after addition of water ([3]; 20% water (by volume) in the presence of oxygen) | diffusion coefficient for the one-electron oxidation ([7]; DMSO) | diffusion coefficient for the one-electron oxidation ([7]; propylene carbonate (PC)) | Structure (SMILES) | stability in the presence of water [1] | change in voltammogram on exhaustive CV cycling ([3]; over 800 cycles) | change in CV before and after static cell cycling [4] | formal potential, previously reported value [5] [V vs. SHE] | metal ligand stability constant [6] | formal potential (E°′=E1/2) ([7]; DMSO, ferrocene as internal standard)
 |  |  |  |  | CC(=O)/C=C(/C)O.CC(=O)/C=C(/C)O.CC(=O)/C=C(/C)O.[V] [V(acac)3] | rapidly decomposes |  |  |  |  | 
low | 2.6×10^23 | no change in voltammogram shape | 8.3×10^−7 cm^2·s^−1 | 5.6×10^−7 cm^2·s^−1 | O.O.O.O.O.O=C([O-])CN(O)CC(=O)[O-].O=C([O-])CN(O)CC(=O)[O-].[Ca].[V+4] [CVBH, Calcium(ii) vanadium(iv)bis-hydroxyiminodiacetate pentahydrate] |  | virtually no change in the shape of the voltammogram | no observed change in the shape of the CV | 0.38 | 8.2×10^21 | 0.30 V vs standard hydrogen electrode (SHE)
